Reference: patent US20110256557A1, “IDENTIFYING PARATHYROID HORMONE AGONISTS AND ANTAGONISTS” (DISCOVERYBIOMED, INC., priority 2008, published 2011)

Assays:
β-catenin = assay: Western blot of cytosolic β-catenin in UMR-106 cells; assay type: cell-based, rat
Method: (§1) Cells were harvested in cavitation buffer (5 mM HEPES, pH 7.4, 3 mM MgCl2, 1 mM EGTA, 250 mM sucrose) containing protease and phosphatase inhibitors and homogenized by nitrogen cavitation (200 p.s.i., for 5 minutes) in a cell disruption bomb (Parr Instrument Co.; Moline, Ill.). The cell homogenate was centrifuged twice at 700 g for 10 minutes to pellet the nuclei. The supernatant was further centrifuged at 100,000 g (Beckman SW50.1 rotor) for 1 hour to separate the membrane and cytosol fractions, and the resulting membrane pellet was washed three times with cavitation buffer before use in the assays (Zhang et al., Biochem. J. 343:541-9 (1999)). Immunoprecipitation and Western blot analysis of cell lysates were performed as described previously (Wan et al., Am. J. Pathol. 166:1379-92 (2005)).

[1] = system: luciferase reporter bearing TCF/LEF binding elements; assay: TCF/LEF luciferase reporter assay in UMR-106 cells; assay type: cell-based, rat; details: for effect on PTH-stimulated TCF/LEF luciferase (transcriptional) activity: UMR-106 cells treated with PTH
Excerpt: HEK293, UMR-106 and mouse embryonic fibroblast (MEF) cells were maintained in Dulbecco's Modified Eagle Medium (DMEM) with 10% Fetal Calf Serum (FCS). Mouse Wnt3a conditioned medium (Wnt3a CM) was produced from mouse L cells stably transfected with mouse Wnt3a (American Type Culture Collection; Manassas, Va.) and control conditioned medium (Control CM) was from non-transfected L cells. IgG, LRP6N-IgG, DKK1, Sclerostin, VSVG-LRP6N and Myc-Fz8CRD conditioned media were produced from HEK 293 cells transfected with the individual plasmids. Transfections were carried out using lipofectamine reagent (Invitrogen; Carlsbad, Calif.). Luciferase assays were carried out in either UMR-106 or HEK 293 cells as described previously (Wan et al., Am. J. Pathol. 166:1379-92 (2005)), with 0.3 μg of TCF-Luc reporter plasmid plus 50 ng of Renilla luciferase plasmid (internal control) per well in the 12-well plate. Experiments were repeated at least three times with triplicate for each experiment.

axin-LRP6 binding = assay: Co-IP of axin binding to LRP6 in HEK293 cells; assay type: cell-based
Method: as §1

[2] = system: TCF/LEF luciferase reporter; assay: High-throughput screen validation, TCF/LEF luciferase reporter in osteosarcoma cell line; assay type: cell-based; details: 96-well plate
Method: Osteosarcoma cells were plated in a 96 well plate. The cells were transiently transfected with the TCF/LEF luciferase reporter using LipofectAMINE PLUS (Invitrogen; Carlsbad, Calif.). The cells were incubated overnight at 37° C. in OptiMEM-1 serum-free medium with the transfection reagents. The cells were washed and serum-containing medium was added to the cells for 8 hours. The serum-containing medium was replaced with serum-free medium and the cells were stimulated overnight with PTH and WNT3a. Supernatant from the stimulated cells was collected for detection of osteosclerostin, and the cells were subjected to a luciferase assay as previously described (Wan et al., Am. J. Pathol. 166:1379-92 (2005)).
To determine agonists and antagonists of the additive signaling of the PTH receptor and the WNT receptor, (as well as any co-receptors) in bone cells, a high-throughput screen is designed. […] An osteosarcoma cell line is transiently transfected with a TCF/LEF luciferase reporter. The cells are treated with WNT3a and PTH and luciferase activity is determined (FIG. 46).

LRP6 = LRP6 phosphorylation at PPPSP motifs, western blotting with Ab1490, UMR-106 cells; assay type: cell-based, rat; details: cells not given
Method: as §1
As phosphorylation of LRP6 at the PPPSP motifs plays a crucial role in activating downstream β-catenin signaling by Wnt, whether PTH induces phosphorylation of LRP6 at PPPSP motifs (Mao et al., Mol. Cell. 7:801-9 (2001); Tamai et al., Mol. Cell. 13:149-56 (2004); Davidson et al., Nature 438:867-72 (2005); Zeng et al., Nature 438:873-7 (2005)). Immunoprecipitated LRP6 from extracts of PTH-treated UMR-106 cells were monitored for their phosphorylation, by western blotting, with an antibody that recognizes phosphorylated PPPSP motifs (Ab1490) (Tamai et al., Mol. Cell. 13:149-56 (2004)). […] Phosphorylation of PPPSP motifs is required for axin recruitment from cytoplasm to LRP6 at cell membrane. […] Fz8CRD, a competitive inhibitor of the Wnt receptor Fz (Hsieh et al., Proc. Natl. Acad. Sci. USA 96:3546-55 (1999)), was used to exclude the possibility that these PTH effects are mediated through promotion of Wnts production or sensitization of Wnt-stimulated signaling. […] In contrast, LRP6N blocked PTH-stimulated LRP6 phosphorylation (FIG. 33).

β-catenin in osteoblasts = assay: Immunohistochemistry of β-catenin in bone sections after single-dose injection, rats; assay type: in vivo, rat; details: for positive staining of β-catenin in osteoblasts: five month-old rats, single i.v. dose 40 μg/kg, 8 hours after injection
Method: For the experiments in which rats or mice were administered PTH as single-dose injection, five-month-old male Sprague Dawley rats (Charles River Laboratories; Wilmington, Mass.) or two-month-old male C57BL/J6 mice (Jackson Laboratory; Bar Harbor, Me.) (6 per group) were administered a single dose of either vehicle (1 mM acetic acid in sterile PBS) or PTH (1-34) (Bachem Inc.; Torrance, Calif.) at 40 μg/kg in a volume of 100 μl. In the mouse model, mouse recombinant Wnt3a (R&D Systems; Minneapolis, Minn.) was injected at 25 μg/kg in a volume of 100 μl. All treatments were through bolus intravenous injection via the tail vein. Rats/mice were sacrificed at 0.5, 2, 8 and 24 hours after injection.
Formalin-fixed femur or tibia tissue sections of 5 μm thickness from rats or mice were processed with antigen retrieval and hydrogen peroxide treatment prior to incubation with primary monoclonal antibody specific for β-catenin (BD Biosciences; San Jose, Calif.), goat polyclonal antibody sclerostin (R&D Systems; Minneapolis, Minn.) or rabbit polyclonal phosphorylated LRP6 (Ab1490) for 1 hour at room temperature or overnight at 4° C. Negative controls were obtained by replacing the primary antibodies with irrelevant control isotype IgG. […] In the rat model, numbers of total osteoblasts and numbers of β-catenin- or p-LRP6-positive osteoblasts were counted in three random high power fields at metaphysis subjacent to the epiphyseal growth plates or the diaphyseal hematopoietic bone marrow per specimen, and a total of six specimens in each group were used. In the mouse model, numbers of total osteoblasts and numbers of β-catenin-positive osteoblasts were counted in three random high power fields in a 2-mm square, 1 mm distal to the lowest point of the growth plate in the secondary spongiosa. Numbers of total osteocytes and numbers of sclerostin-positive osteocytes were counted in three random high power fields per trabecular bone section or cortical bone section, and a total of six specimens in each group were used.

LRP6-PTH1R complex = biological target: T1, LRP6-PTH1R complex (Rattus norvegicus, UniProt P25961); assay: Co-immunoprecipitation of endogenous LRP6 and PTH1R in UMR-106 cells; assay type: cell-based
T1 construct: endogenous LRP6 and endogenous PTH1R in UMR-106 cells; endogenous in cells; host or cells: UMR-106
T1 sequence (P25961 27-591): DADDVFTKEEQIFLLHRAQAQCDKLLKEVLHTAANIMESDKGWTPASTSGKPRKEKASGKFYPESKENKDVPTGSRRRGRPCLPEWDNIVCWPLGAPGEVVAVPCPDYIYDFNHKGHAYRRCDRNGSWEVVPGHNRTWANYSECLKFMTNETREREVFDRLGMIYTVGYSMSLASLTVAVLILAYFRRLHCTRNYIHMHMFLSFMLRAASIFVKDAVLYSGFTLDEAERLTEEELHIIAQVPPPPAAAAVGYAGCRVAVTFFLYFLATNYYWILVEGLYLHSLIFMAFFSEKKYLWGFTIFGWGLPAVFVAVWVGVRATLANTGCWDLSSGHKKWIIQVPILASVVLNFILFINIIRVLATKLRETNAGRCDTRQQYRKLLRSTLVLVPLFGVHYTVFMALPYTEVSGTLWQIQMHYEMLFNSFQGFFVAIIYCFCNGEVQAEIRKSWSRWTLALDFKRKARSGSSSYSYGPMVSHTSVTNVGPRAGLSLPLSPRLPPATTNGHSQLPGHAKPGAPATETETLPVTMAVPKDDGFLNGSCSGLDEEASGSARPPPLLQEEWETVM
Method: as §1

“PTH (39-84): C-terminal fragment of PTH; binds PTH1R but does not activate PKA (APLAPRDAGSQRPRKKEDNVLVESHEKSLGEADKADVNVLTKAKSQ; Parathyroid hormone; UniProt P01270 70-115, looked up, fragment)” was tested, and the “altering the stability of β-catenin compared with PTH (1-84)” value (β-catenin) was “much less effective than PTH (1-84)”, the “activating β-catenin signaling (TCF4/LEF luciferase) compared with PTH (1-84)” value ([1]; UMR-106 cells) was “much less effective than PTH (1-84)” and the “inducing axin-LRP6 binding compared with PTH (1-84)” value (axin-LRP6 binding) was “much less effective than PTH (1-84)”.

With WNT3a the “stimulation of the TCF/LEF luciferase reporter, treatment alone” value [2] was “stimulates”.

For `O=S(=O)(NCCNC/C=C/c1ccc(Br)cc1)c1cccc2cnccc12` [H89], the “effect on PTH-induced β-catenin stabilization” value (β-catenin) was “reduced”, the “effect on Wnt3a-stimulated β-catenin stabilization” value (β-catenin) was “did not affect” and the “effect on Wnt3a-stimulated LRP6 phosphorylation” value (LRP6) was “did not affect”. For the same molecule, the “effect on Wnt3a-stimulated β-catenin-dependent transcription activity (TCF4/LEF luciferase)” value ([1]; UMR-106 cells) was “did not affect”, the “effect on PTH-stimulated TCF/LEF luciferase (transcriptional) activity” value [1] was “reduced” and the “effect on binding of axin to LRP6 in cells treated with PTH” value (axin-LRP6 binding; PTH-treated cells) was “reduced”.

With “PTH (1-34): C-terminal-truncated synthetic analog of PTH with an anabolic effect on bone formation in humans (SVSEIQLMHNLGKHLNSMERVEWLRKKLQDVHNF; Parathyroid hormone; UniProt P01270 32-65, looked up, fragment)” the “positive staining of β-catenin in osteoblasts” value (β-catenin in osteoblasts; diaphyseal bone marrow) was “about 90.24±0.68%”, the “positive staining of β-catenin in osteoblasts” value (β-catenin in osteoblasts; metaphysis subjacent to the epiphyseal growth plates) was 99.08±0.57% and the “expression of β-catenin in preosteoblasts and osteoblasts on the bone surface” value (β-catenin in osteoblasts; rats, single dose, trabecular bone, within hours) was “induced”.

B1: LRP6N: soluble N-terminal (extracellular) domain of LRP6; acts as a dominant-negative in PTH signaling (protein)
chain: APLLLYANRRDLRLVDATNGKENATIVVGGLEDAAAVDFVFSHGLIYWSDVSEEAIKRTEFNKTESVQNVVVSGLLSPDGLACDWLGEKLYWTDSETNRIEVSNLDGSLRKVLFWQELDQPRAIALDPSSGFMYWTDWGEVPKIERAGMDGSSRFIIINSEIYWPNGLTLDYEEQKLYWADAKLNFIHKSNLDGTNRQAVVKGSLPHPFALTLFEDILYWTDWSTHSILACNKYTGEGLREIHSDIFSPMDIHAFSQQRQPNATNPCGIDNGGCSHLCLMSPVKPFYQCACPTGVKLLENGKTCKDGATELLLLARRTDLRRISLDTPDFTDIVLQLEDIRHAIAIDYDPVEGYIYWTDDEVRAIRRSFIDGSGSQFVVTAQIAHPDGIAVDWVARNLYWTDTGTDRIEVTRLNGTMRKILISEDLEEPRAIVLDPMVGYMYWTDWGEIPKIERAALDGSDRVVLVNTSLGWPNGLALDYDEGKIYWGDAKTDKIEVMNTDGTGRRVLVEDKIPHIFGFTLLGDYVYWTDWQRRSIERVHKRSAEREVIIDQLPDLMGLKATNVHRVIGSNPCAEENGGCSHLCLYRPQGLRCACPIGFELISDMKTCIVPEAFLLFSRRADIRRISLETNNNNVAIPLTGVKEASALDFDVTDNRIYWTDISLKTISRAFMNGSALEHVVEFGLDYPEGMAVDWLGKNLYWADTGTNRIEVSKLDGQHRQVLVWKDLDSPRALALDPAEGFMYWTEWGGKPKIDRAAMDGSERTTLVPNVGRANGLTIDYAKRRLYWTDLDTNLIESSNMLGLNREVIADDLPHPFGLTQYQDYIYWTDWSRRSIERANKTSGQNRTIIQGHLDYVMDILVFHSSRQSGWNECASSNGHCSHLCLAVPVGGFVCGCPAHYSLNADNRTCSAPTTFLLFSQKSAINRMVIDEQQSPDIILPIHSLRNVRAIDYDPLDKQLYWIDSRQNMIRKAQEDGSQGFTVVVSSVPSQNLEIQPYDLSIDIYSRYIYWTCEATNVINVTRLDGRSVGVVLKGEQDRPRAVVVNPEKGYMYFTNLQERSPKIERAALDGTEREVLFFSGLSKPIALALDSRLGKLFWADSDLRRIESSDLSGANRIVLEDSNILQPVGLTVFENWLYWIDKQQQMIEKIDMTGREGRTKVQARIAQLSDIHAVKELNLQEYRQHPCAQDNGGCSHICLVKGDGTTRCSCPMHLVLLQDELSCGEPPTCSPQQFTCFTGEIDCIPVAWRCDGFTECEDHSDELNCPVCSESQFQCASGQCIDGALRCNGDANCQDKSDEKNCEVLCLIDQFRCANGQCIGKHKKCDHNVDCSDKSDELDCYPTEEPAPQA
modifications: left off: a dimerising Fc or GST
notes: soluble N-terminal (extracellular) domain of LRP6; acts as a dominant-negative in PTH signaling
With B1 the “effect on PTH-stimulated LRP6 phosphorylation” value (LRP6; endogenous LRP6) was “blocked”, the “effect on PTH-stimulated TCF/LEF luciferase (transcriptional) activity” value [1] was “inhibited” and the “effect on PTH-induced association of endogenous LRP6 with PTH1R” value (LRP6-PTH1R complex) was “blocked”.
